Source: patent US20250082612A1, “SREBP-1 INHIBITOR AND PHARMACEUTICAL COMPOSITION FOR TREATING […]” (Jichi Medical University, priority 2021, published 2025)

Molecular target: T1, human SREBP-1c (Homo sapiens, UniProt P36956)
T1 construct: expressed in transfected cells
Assay: Gal4-SREBP-1c luciferase reporter assay in HepG2 stable expression strain
Type: cell-based
Details: EPA 100 or 300 μM, OA 300 μM, Cho 100 μM, 25HCho 30 μM in culture medium; 24 hours; vs DMSO
Text: A pcDNA3.1 (+)-Hyg vector (manufactured by Thermo Fisher Scientific, Inc. under the brand of Invitrogen) was inserted with DNA fragments of a firefly luciferase reporter cloned from a pGL3-Basic vector (manufactured by Promega Corporation), a pSV40-Renilla luciferase reporter cloned from a pRL-SV40 vector (manufactured by Promega Corporation), and a human SREBP-1c cloned from a pTK-HSV-hSREBP-1c, whereby a vector having a structure shown in FIG. 1 was constructed. The base sequence of the vector is set forth in SEQ ID NO: 2. In FIG. 1, Gal4-BP1 is a human SREBP-1c that is obtained by fusing sequences of the Gal4-DNA binding domain and the minimal VP16-AD to the N-terminal side. 17 m8 is a DNA sequence to which the Gal4-DNA binding domain binds. CTCF is a DNA sequence that acts as an insulator, which blocks the action of transcription factors.
HepG2 cells, which are a cell line derived from human liver cancer, were cultured in advance to a confluency of 10% confluent in Dulbecco's Modified Eagle's Medium (DMEM) (containing 25 mM glucose, 100 units/mL penicillin, […] streptomycin sulfate, and 10 v/v % fetal bovine serum (FBS)) and then transfected with the vector obtained in (1) described above, by using a Lipofectamine 3000 transfection reagent (manufactured by Thermo Fisher Scientific, Inc. under the brand of Invitrogen), 5 whereby the vector was inserted into the genome. […] Next, a Reporter lysis buffer (Promega Corporation) was added to lyse the cells, and luciferase activity was measured with a luminometer.
Next, each candidate compound (concentration in culture medium: 2 or 5 μM) was added to the cell line (2×10^4 cells/well) seeded in a plurality of 384-well plates, which had been constructed in (2) described above, so that one kind of each compound was added to one well, and incubation was carried out for 24 hours. […] Next, Steady-Glo (a mixture of luciferin and a Lysis buffer) was added thereto, and then luciferase activity was measured with a luminometer. […]

T1 sequence (P36956 with tags, fused parts or gaps isoform P36956-4 limits assumed): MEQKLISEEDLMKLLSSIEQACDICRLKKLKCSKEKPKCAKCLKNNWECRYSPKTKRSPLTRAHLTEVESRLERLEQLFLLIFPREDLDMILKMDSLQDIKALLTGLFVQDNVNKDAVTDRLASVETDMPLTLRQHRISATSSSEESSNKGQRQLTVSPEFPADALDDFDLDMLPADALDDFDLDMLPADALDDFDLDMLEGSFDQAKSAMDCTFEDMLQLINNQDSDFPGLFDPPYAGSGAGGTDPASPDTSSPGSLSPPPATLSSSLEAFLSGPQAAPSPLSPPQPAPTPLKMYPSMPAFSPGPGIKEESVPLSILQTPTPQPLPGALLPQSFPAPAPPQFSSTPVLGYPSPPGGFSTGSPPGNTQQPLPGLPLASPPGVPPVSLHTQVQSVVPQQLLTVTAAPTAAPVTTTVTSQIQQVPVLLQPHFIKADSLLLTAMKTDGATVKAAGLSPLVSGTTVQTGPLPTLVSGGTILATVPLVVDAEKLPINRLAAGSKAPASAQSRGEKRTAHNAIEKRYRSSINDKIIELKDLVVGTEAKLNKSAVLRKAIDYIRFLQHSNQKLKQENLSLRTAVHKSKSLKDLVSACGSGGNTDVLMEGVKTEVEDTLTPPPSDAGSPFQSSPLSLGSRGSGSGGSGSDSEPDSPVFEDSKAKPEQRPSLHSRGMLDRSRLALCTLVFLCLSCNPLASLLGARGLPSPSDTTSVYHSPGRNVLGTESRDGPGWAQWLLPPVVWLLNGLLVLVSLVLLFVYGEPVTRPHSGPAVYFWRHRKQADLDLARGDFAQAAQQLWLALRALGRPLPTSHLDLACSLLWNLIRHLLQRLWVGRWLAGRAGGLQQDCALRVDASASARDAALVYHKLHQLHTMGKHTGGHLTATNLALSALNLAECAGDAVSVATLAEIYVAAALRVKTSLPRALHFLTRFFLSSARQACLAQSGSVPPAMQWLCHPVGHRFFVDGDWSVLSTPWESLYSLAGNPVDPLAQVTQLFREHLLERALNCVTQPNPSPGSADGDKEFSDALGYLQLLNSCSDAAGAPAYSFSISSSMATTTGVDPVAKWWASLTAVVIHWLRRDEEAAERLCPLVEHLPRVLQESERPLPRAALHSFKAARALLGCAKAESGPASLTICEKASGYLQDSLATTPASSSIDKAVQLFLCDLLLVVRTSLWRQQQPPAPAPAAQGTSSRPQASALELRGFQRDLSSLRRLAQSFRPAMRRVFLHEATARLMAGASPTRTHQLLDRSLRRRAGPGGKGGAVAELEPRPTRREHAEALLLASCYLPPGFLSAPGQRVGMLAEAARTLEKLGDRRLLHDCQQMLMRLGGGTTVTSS

| SMILES | luciferase activity (SREBP-1 reporter, FIG. 2) |
| --- | --- |
| CC(C)CCC[C@@H](C)[C@H]1CC[C@H]2[C@@H]3CC=C4C[C@@H](O)CC[C@]4(C)[C@H]3CC[C@]12C [Cho, cholesterol] | luciferase activity was reduced |
| C[C@H](CCCC(C)(C)O)[C@H]1CC[C@H]2[C@@H]3CC=C4C[C@@H](O)CC[C@]4(C)[C@H]3CC[C@]12C [Compound 25HCho, 25-hydroxycholesterol] | luciferase activity was reduced |
| CCCCCCCC/C=C\CCCCCCCC(=O)O [OA, oleic acid] | luciferase luminescence was observed |

Molecular target: T2, human SREBP-2 (Homo sapiens, UniProt Q12772)
T2 construct: expressed in transfected cells
Assay: Gal4-SREBP-2 luciferase reporter assay in HepG2 stable expression strain
Type: cell-based
Details: EPA 100 or 300 μM, 25HCho 30 μM in culture medium; 24 hours; vs DMSO
Text: In order to exclude compounds such as cholesterol and 25-hydroxycholesterol, which have an inhibitory action on both SREBP-1 and SREBP-2, first, a vector having the structure shown in FIG. 3 was constructed using the same method as in “1.” described above, except that a DNA fragment of human SREBP-2 cloned from pTK-HSVhSREBP-2 was used instead of the DNA fragment of human SREBP-1c. The base sequence of the vector is set forth in SEQ ID NO: 3. In FIG. 3, Gal4-BP2 is a human SREBP-2 that is obtained by fusing sequences of the Gal4-DNA binding domain and the minimal VP16-AD to the N-terminal side.
a stable expression strain of HepG2, which stably expressed firefly luciferase, was established using the same method as in “1. (2)” described above, except that the vector obtained in “2. (1)” described above was used. […] Next, a Reporter lysis buffer (Promega Corporation) was added to lyse the cells, and luciferase activity was measured with a luminometer. […]
Among the 39 kinds of compounds, 23 kinds of compounds were selected by searching the PAINS database (https://www.rdkit.org/docs/source/rdkit. Chem.rdfiltercatalog.html) and excluding, from targets of interest, compounds for which non-specific action had been reported. […] It is noted that the SREBP-1 inhibition rate and the SREBP-2 inhibition rate in the reporter assay were calculated using the following method. […]

T2 sequence (Q12772 with tags, fused parts or gaps limits assumed): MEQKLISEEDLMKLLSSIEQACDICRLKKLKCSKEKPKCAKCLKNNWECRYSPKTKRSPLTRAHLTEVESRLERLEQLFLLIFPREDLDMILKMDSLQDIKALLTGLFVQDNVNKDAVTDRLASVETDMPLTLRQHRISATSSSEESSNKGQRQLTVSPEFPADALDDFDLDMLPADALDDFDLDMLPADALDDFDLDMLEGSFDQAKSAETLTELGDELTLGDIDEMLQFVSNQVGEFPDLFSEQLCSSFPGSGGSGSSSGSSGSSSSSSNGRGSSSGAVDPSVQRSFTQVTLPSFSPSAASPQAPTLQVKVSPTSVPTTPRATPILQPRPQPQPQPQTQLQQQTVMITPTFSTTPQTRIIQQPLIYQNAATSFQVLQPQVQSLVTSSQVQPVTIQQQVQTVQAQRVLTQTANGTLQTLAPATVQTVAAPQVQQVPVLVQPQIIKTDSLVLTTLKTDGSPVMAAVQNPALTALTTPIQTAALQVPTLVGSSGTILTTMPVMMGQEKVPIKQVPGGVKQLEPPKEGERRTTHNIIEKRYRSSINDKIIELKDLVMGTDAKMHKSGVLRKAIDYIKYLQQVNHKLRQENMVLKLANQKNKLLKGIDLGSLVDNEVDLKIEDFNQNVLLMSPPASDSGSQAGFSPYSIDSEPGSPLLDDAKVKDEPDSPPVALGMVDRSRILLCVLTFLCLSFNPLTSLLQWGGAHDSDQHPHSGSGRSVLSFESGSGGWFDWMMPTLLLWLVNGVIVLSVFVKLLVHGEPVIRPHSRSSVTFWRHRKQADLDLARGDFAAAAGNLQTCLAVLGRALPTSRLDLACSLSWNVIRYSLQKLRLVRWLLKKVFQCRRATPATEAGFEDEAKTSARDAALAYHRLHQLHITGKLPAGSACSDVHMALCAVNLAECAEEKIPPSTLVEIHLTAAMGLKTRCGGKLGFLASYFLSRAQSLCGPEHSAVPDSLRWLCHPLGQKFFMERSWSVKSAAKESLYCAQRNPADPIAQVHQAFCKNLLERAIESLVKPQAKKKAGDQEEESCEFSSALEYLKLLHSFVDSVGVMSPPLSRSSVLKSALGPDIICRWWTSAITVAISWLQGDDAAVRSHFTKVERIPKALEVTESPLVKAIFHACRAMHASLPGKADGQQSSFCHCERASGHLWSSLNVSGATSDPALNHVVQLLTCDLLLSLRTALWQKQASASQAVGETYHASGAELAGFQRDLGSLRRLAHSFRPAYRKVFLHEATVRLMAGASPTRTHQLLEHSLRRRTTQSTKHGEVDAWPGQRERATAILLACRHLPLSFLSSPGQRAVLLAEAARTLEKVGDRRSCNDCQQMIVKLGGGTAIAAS

| SMILES | luciferase activity (SREBP-2 reporter, FIG. 4) |
| --- | --- |
| C[C@H](CCCC(C)(C)O)[C@H]1CC[C@H]2[C@@H]3CC=C4C[C@@H](O)CC[C@]4(C)[C@H]3CC[C@]12C [Compound 25HCho, 25-hydroxycholesterol] | luciferase activity was reduced |

System: H4IIEC3 cells
Assay: Triglyceride concentration in culture solution of H4IIEC3 hepatocytes
Type: cell-based, rat
Details: 2 μM in culture medium; 24 hours; relative to DMSO group
Method: Specifically, first, H4IIEC3 cells (1×10^5 cells/well) seeded in advance in a 48-well plate, which are a cell line of rat hepatocytes, were cultured for 1 day. Next, culture medium exchange was carried out so that a high glucose DMEM (serum-free) containing each compound (concentration in culture medium: 2 μM) or DMSO as a control was 200 μL/well, and then the cells were incubated for 24 hours. Next, the triglyceride concentration in the culture solution was measured using a Triglyceride E-Test WAKO (FUJIFILM Corporation). In FIG. 7A to FIG. 7F, the triglyceride concentration in each compound addition group was indicated as a relative percentage in a case where the triglyceride concentration in the DMSO addition group was set to 100%.

| SMILES | triglycerides in culture solution of cultured hepatocytes (FIG. 7A-7F) |
| --- | --- |
| CCCOc1ccccc1OC(=O)CN1C(=O)COc2ccccc21 [(5)] | reduce triglycerides |
| CSc1nn(-c2ccc([N+](=O)[O-])cc2)c(N)c1C(N)=O [(6), 5-amino-3-methylsulfanyl-1-(4-nitrophenyl)pyrazole-4-carboxamide] | reduce triglycerides |
| C=CCNc1nc(-c2ccc(N3CCCC3=O)cc2)cs1 [(11)] | reduce triglycerides |
| COc1ccc2c(c1)[nH]c1c(C)nccc12 [(16)] | reduce triglycerides |
| CCc1c2c(nc3ccc(O)cc13)-c1cc3c(c(=O)n1C2)COC(=O)[C@]3(O)CC [(22a)] | reduce triglycerides |
